Assay results taken from patent US20050033056A1, “Hydroxylated indole derivatives and uses thereof” (priority 2001, published 2005).

Assays:
[1] = biological target: CYP2D6 (Homo sapiens, UniProt P10635); assay: Compound 1 metabolism / metabolite formation by recombinant CYP2D6; assay type: in vitro ADME; design: purchased Gentest Corp. (Woburn, Mass.); host or cells: insect cells (microsomal preparation)
Experimental: (§1) The metabolism of Compound 1 was determined by the disappearance of Compound 1 or the appearance of Compound 1 metabolites in reaction mixtures as compared to respective controls. Compound 1 was incubated in the reconstituted in vitro reaction systems containing pooled human liver S9 fractions, microsomal preparations, or recombinant hepatic CYP forms, including CYP1A2, CYP2C9, CYP2C19, CYP2D6, CYP2E1, and CYP3A4. The reaction mixture (total volume of 250 μL) contained 0.5 mg of liver microsomal protein, 50 or 25 pmol of recombinant CYP, and Compound 1 (50-80 μM) in 50 mM Tris buffer containing 15 mM MgCl2 (pH 7.4). After incubating at 37° C. with gentle shaking for 1 minute, the reaction was initiated by adding 25 μL of NADPH solution (20 mg/mL), and was carried out for 1 hour. The reaction was terminated by quickly cooling the test tube on ice, followed by the addition of an equal volume of 100% methanol. The samples were centrifuged in a desktop centrifuge at 14,000 rpm for 5 minutes, and the supernatants were filtered through syringe filters (13 mm, 0.45 μm). The filtrates were subjected to analysis using LC/MS (ion trap) or LC/MS/MS.
1. LC/MS (LCQ ion trap mass spectrometer, Finnigan Corp., San Jose, Calif.): Hewlett Packard 1100 HPLC system (Waldbronn, Germany) consisted of a binary pump, an autosampler, a column compartment unit, and an online variable wavelength UV detector (VWD). The detector was monitored at 270 nm, which is the UVmax of Compound 1 predetermined by scanning between 225-400 nm using a photodiode array detector (PDA). The metabolites were separated on a Hewlett Packard Eclipse C18 column (150×2.1 mm). The mobile phases were 10 nmM ammonium acetate at pH 4.8 (A) and acetonitrile (B). The gradient (B) was 10% (0-6 minutes), 22% (12-22 minutes), 90% (25-30 minutes), and 10% (31 minutes and after). The flow rate was 0.25 mL/minute. Software Navigator (Version 1.2, Finnigan Corp.) was used to control the HPLC and MS and to acquire the data. […]

[2] = biological target: CYP2C19 (Homo sapiens, UniProt P33261); assay: Compound 1 metabolism / metabolite formation by recombinant CYP2C19; assay type: in vitro ADME; design: purchased Gentest Corp. (Woburn, Mass.); host or cells: insect cells (microsomal preparation)
Sequence of CYP2C19 (P33261 whole entry): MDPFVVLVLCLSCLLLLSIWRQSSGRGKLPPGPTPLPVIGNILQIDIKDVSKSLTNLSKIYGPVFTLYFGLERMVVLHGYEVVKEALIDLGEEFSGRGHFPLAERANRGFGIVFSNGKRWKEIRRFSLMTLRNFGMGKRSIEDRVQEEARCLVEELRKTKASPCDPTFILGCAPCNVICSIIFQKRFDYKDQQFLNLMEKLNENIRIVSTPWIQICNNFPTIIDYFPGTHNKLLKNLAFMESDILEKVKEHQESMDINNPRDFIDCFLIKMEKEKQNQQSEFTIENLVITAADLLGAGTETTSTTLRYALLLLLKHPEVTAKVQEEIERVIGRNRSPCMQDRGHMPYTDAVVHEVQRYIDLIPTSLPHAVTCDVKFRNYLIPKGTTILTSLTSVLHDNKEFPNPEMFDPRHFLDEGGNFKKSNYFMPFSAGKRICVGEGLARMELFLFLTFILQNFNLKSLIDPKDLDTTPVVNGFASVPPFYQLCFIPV
Experimental: as §1
1. LC/MS (LCQ ion trap mass spectrometer, Finnigan Corp., San Jose, Calif.): Hewlett Packard 1100 HPLC system (Waldbronn, Germany) consisted of a binary pump, an autosampler, a column compartment unit, and an online variable wavelength UV detector (VWD). The detector was monitored at 270 nm, which is the UVmax of Compound 1 predetermined by scanning between 225-400 nm using a photodiode array detector (PDA). The metabolites were separated on a Hewlett Packard Eclipse C18 column (150×2.1 mm). The mobile phases were 10 nmM ammonium acetate at pH 4.8 (A) and acetonitrile (B). The gradient (B) was 10% (0-6 minutes), 22% (12-22 minutes), 90% (25-30 minutes), and 10% (31 minutes and after). The flow rate was 0.25 mL/minute. Software Navigator (Version 1.2, Finnigan Corp.) was used to control the HPLC and MS and to acquire the data. The MS was operated at positive electrospray ionization (ESI) with 5.2 kV ionization potential and 220° C. heated capillary temperature. The product ion spectra were generated under 24V collision energy, which was optimized for the fragmentation of Compound 1.
2. LC/MS/MS (SCIEX API2000 triple quadrupole mass spectrometer, PE Biosystem, Foster City, Calif.): The same HPLC system described above was coupled with a tandem mass spectrometer. The metabolites were separated on a Sulpelco Discovery C18 column (150×2.1 mm), and the mobile phase described previously was run at 1.0 mL/min with a 1:10 split. The gradient (B) was 20% (0-6 minutes), 60% (14-18 minutes), 95% (20-24 minutes), and 20% (25 minutes and after). The operation of the HPLC and the MS/MS was controlled by MacChrom (Version 1.6, PE Biosystem). […]

[3] = approximately 50 μM of Compound 1

Sequence of CYP2D6 (P10635 whole entry): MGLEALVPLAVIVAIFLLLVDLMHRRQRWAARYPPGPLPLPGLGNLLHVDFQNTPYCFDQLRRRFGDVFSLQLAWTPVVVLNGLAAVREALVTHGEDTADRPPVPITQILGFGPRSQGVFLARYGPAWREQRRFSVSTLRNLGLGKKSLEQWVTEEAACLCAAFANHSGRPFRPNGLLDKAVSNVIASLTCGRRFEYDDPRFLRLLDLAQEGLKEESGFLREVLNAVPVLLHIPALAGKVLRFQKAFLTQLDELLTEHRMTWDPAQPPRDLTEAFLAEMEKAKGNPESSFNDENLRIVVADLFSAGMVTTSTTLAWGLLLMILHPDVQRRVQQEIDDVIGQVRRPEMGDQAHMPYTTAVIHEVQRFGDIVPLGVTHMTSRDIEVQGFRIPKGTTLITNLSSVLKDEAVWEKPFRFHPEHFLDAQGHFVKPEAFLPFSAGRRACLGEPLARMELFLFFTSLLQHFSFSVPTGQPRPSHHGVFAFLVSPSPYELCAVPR

CNC(=O)Cc1ccc2ccn(C3CCN(CCc4ccccc4F)CC3)c2c1 [Compound 1, N-methyl-[1-[1-(2-fluorophenethyl)piperidine-4-yl]-1H-indol-6-yl] acetamide]
metabolism of Compound 1 by CYP2D6 (in words) [1, 3]: metabolized
Rel. Amount (%) ([1]; recombinant CYP2D6, estimated by UV absorbance at 270 nm, metabolite formed or Compound 1 left after 1 hour with NADPH): 78%
metabolism of Compound 1 by CYP2C19 (in words) [2, 3]: metabolized
Rel. Amount (%) ([2]; recombinant CYP2C19, estimated by UV absorbance at 270 nm, metabolite formed or Compound 1 left after 1 hour with NADPH): 42%
